One compound from US20150038430A1, “THERAPEUTIC PEPTIDOMIMETIC MACROCYCLES” (AILERON Therapeutics, Inc., priority 2008, published 2015) can be followed below.

Assay [1] deals with A375. The assay is classed as cell-based, human. As to conditions: 24 h. The protocol:
(§1) Cell viability assays shown in FIGS. 34-52 were performed according to a similar protocol. Cells were split at optimal cell density a day prior to the initiation of the study. The next day, cells were washed twice in serum-free Opti-MEM media and 4000 cells/well were added to each well in a final volume of […] Opti-MEM. For serum-free experiments, macrocycles were diluted from 2 mM stocks (100% DMSO) in sterile water to prepare 400 μM working solutions. A 40 μM solution was then generated by ten-fold dilution in assay buffer. The macrocycle and controls were then serially diluted two-fold in assay buffer in dosing plates to provide concentrations between 1.2 and 40 μM, respectively. For experiments in 2% human serum, macrocycles were diluted from 10 mM stocks (100% DMSO) in sterile water to prepare 1 mM working solutions. A 100 μM solution was generated by ten-fold dilution in assay buffer. The macrocycles and controls were then serially diluted two-fold in assay buffer in dosing plates to provide concentrations between 3 and 100 μM, respectively. 50 μl of each dilution was then added to the appropriate wells of the test plate to achieve final concentrations of the macrocycle between 0.6 to 20 μM (for serum free experiment) or 1.5 to 50 μM (for 2% serum experiment), respectively. Controls included wells without macrocycles containing the same concentration of DMSO as the macrocycle-containing wells, wells containing 0.1% Triton X-100, and wells containing no cells. Plates were incubated for 24 hours at 37° C. in a humidified 5% CO2 atmosphere. At the end of a 24 hr incubation period, a CellTiter-Glo Luminescent Cell Viability Assay was performed according to manufacturer's instructions (Promega, catalog #G7571) and the luminescence was measured using a BIO-TEK synergy HT Plate reader. Values were plotted as percent viable, i.e. as a percentage of the negative control value (derived from cells exposed to DMSO only). All assays were performed in duplicate.
(§2) The following tables summarize the EC50 values (μM) observed with peptidomimetic macrocycles of the invention in various cell lines: […]

Assay [2] relates to DHL-6. The assay is classed as cell-based, human. As to conditions: 24 h. The protocol:
as §1, §2

The subject of assay [3] is Jurkat. The assay is classed as cell-based, human. As to conditions: 24 h. The protocol:
as §1, §2

Assay [4] concerns MDA-MB231-Met. The assay is classed as cell-based, human. The conditions noted are these: 24 h. On the procedure:
as §1, §2

Assay [5] has as its system MM1S. It is filed as cell-based, human. As to conditions: 24 h. The protocol:
as §1, §2

Assay [6] concerns Molt-4. The assay is classed as cell-based, human. As to conditions: 24 h. On the procedure: as §1, §2
Assay [7] deals with NCI-H82 (SCLC-MCL1+). The assay is classed as cell-based, human. The conditions noted are these: 24 h. On the procedure:
as §1, §2

For assay [8], the system named is OVCAR8. It is filed as cell-based, human. As to conditions: 24 h. On the procedure:
as §1, §2

In assay [9] the test system is PC3. The assay is classed as cell-based, human. As to conditions: 24 h. On the procedure:
as §1, §2

Assay [10] deals with RS4;11. It is filed as cell-based, human. As to conditions: 24 h. On the procedure: as §1, §2
Assay [11] relates to Raji. The assay is classed as cell-based, human. As to conditions: 24 h. On the procedure: as §1, §2
The subject of assay [12] is SEMK2. It is filed as cell-based, human. As to conditions: 24 h. On the procedure: as §1, §2
Assay [13] has as its target T1, BAX (Homo sapiens, UniProt Q07812).
T1 construct: endogenous in cells; host or cells: MM1S multiple myeloma cells (lysate)
Kind of assay: Immunoprecipitation in MM1S cell lysates. It is filed as binding. The conditions noted are these: multiple myeloma (MM1S) cell lysates. The protocol: It is possible to measure binding of peptides or peptidomimetic macrocycles to their natural acceptors in cell lysates or intact cells by immunoprecipitation and pull-down experiments. For example, intact cells are incubated with fluoresceinated (FITC-labeled) or biotinylated compounds for 4 hrs in the absence of serum, followed by serum replacement and further incubation that ranges from 4-18 hrs. Alternatively, cells can be incubated for the duration of the experiment in Opti-MEM (Invitrogen). Cells are then pelleted and incubated in lysis buffer (50 mM Tris [pH 7.6], 150 mM NaCl, 1% CHAPS and protease inhibitor cocktail) for 10 minutes at 4° C. 1% NP-40 or Triton X-100 may be used instead of CHAPS. Extracts are centrifuged at 14,000 rpm for 15 minutes and supernatants collected and incubated with 10 μl goat anti-FITC antibody or streptavidin-coated beads for 2 hrs, rotating at 4° C. followed by further 2 hrs incubation at 4° C. with protein A/G Sepharose (50 μl of 50% bead slurry).). No secondary step is necessary if using streptavidin beads to pull down biotinylated compounds. […]

Assay [14] addresses Bcl-xL (Homo sapiens, UniProt Q07817). Nature of the assay: Protein-ligand binding experiment (SEC-LC-MS). As to conditions: 1 μM macrocycle plus 5 μM Bcl-xL, 60 min room temperature. The protocol: Protein-ligand binding experiments were conducted according to the following representative procedure outlined for a system-wide control experiment using 1 μM SP-4 plus 5 μM Bcl-xL. A 1 μl DMSO aliquot of a 40 μM stock solution of peptidomimetic macrocycle was dissolved in 19 μl of PBS (Phosphate-buffered saline: 50 mM, pH 7.5 Phosphate buffer containing 150 mM NaCl). The resulting solution was mixed by repeated pipetting and clarified by centrifugation at 10 000 g for 10 min. To a 4 μl aliquot of the resulting supernatant was added 4 μl of 10 μM BCL-xL in PBS. Each 8.0 μl experimental sample thus contained 40 pmol (1.5 μg) of protein at 5.0 μM concentration in PBS plus 1 μM peptidomimetic macrocycle and 2.5% DMSO. Duplicate samples thus prepared for each concentration point were incubated for 60 min at room temperature, and then chilled to 4° C. prior to size-exclusion chromatography-LC-MS analysis of 5.0 μL injections. Samples containing a target protein, protein-ligand complexes, and unbound compounds were injected onto an SEC column, where the complexes were separated from non-binding component by a rapid SEC step. The SEC column eluate was monitored using UV detectors to confirm that the early-eluting protein fraction, which elutes in the void volume of the SEC column, was well resolved from unbound components that are retained on the column. […]

T1 sequence (Q07812 whole entry): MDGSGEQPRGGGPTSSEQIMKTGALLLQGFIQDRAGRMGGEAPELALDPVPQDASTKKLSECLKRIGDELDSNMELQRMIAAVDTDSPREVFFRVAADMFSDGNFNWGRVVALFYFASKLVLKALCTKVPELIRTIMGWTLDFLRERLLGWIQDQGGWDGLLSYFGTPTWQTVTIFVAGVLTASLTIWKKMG
Bcl-xL, sequence (Q07817 whole entry): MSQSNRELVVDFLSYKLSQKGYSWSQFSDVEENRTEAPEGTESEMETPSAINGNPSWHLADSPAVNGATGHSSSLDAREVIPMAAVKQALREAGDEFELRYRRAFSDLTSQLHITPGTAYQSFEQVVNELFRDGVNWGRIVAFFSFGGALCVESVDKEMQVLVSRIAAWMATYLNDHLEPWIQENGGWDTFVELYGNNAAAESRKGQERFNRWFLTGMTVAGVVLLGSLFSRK

Take `CC[C@H](C)[C@H](NC(C)=O)C(=O)N[C@@H](Cc1c[nH]c2ccccc12)C(=O)N[C@H](C(=O)N[C@@H](C)C(=O)N[C@@H](CCC(N)=O)C(=O)N[C@@H](CCC(=O)O)C(=O)N[C@@H](CC(C)C)C(=O)N[C@@H](CCCNC(=N)N)C(=O)NC1(C)CCCC=CCCCC(C)(C(=O)N[C@@H](Cc2ccccc2)C(=O)N[C@@H](CC(N)=O)C(=O)N[C@@H](C)C(=O)N[C@@H](Cc2ccc(O)cc2)C(=O)N[C@@H](Cc2ccc(O)cc2)C(=O)N[C@@H](C)C(=O)N[C@@H](CCCNC(=N)N)C(=O)N[C@@H](CCCNC(=N)N)C(N)=O)NC(=O)[C@H](CC(=O)O)NC(=O)CNC(=O)[C@H]([C@@H](C)CC)NC1=O)[C@@H](C)CC` (some centres unmarked) [SP-4]: the concentration for a half-maximal effect (EC50) in assay [1] is 8 µM; in assay [2], 3.8 µM; in assay [3], 1600 nM; in assay [4], 8.5 µM; in [5], 4.9 µM; in assay [6], 2200 nM. Further, the EC50 in assay [7] stood at 4.9 µM; in assay [8], 20 µM; in [9], 5 µM; in assay [10], 10 µM; in assay [11], 9 µM; in assay [12] it was 4 µM. Moreover, the “binding to pro-apoptotic target protein BAX” value in [13] is “sequence-specific and structure-specific binding”. In addition, the “detection of protein-ligand complex with Bcl-xL” value in assay [14] is “detection of the protein-ligand complex”.

One may read the EC50 as the concentration at which the effect is half-maximal.
